Experiments:
[1] = target: T1, human DBP (vitamin D binding protein) (Homo sapiens, UniProt P02774); experiment: Relative affinity for purified human vitamin D-binding protein (hDBP); conditions: % of the activity of 1α,25-(OH)2D3 at 50% of its activity (B50)
T1 sequence (P02774 17-474): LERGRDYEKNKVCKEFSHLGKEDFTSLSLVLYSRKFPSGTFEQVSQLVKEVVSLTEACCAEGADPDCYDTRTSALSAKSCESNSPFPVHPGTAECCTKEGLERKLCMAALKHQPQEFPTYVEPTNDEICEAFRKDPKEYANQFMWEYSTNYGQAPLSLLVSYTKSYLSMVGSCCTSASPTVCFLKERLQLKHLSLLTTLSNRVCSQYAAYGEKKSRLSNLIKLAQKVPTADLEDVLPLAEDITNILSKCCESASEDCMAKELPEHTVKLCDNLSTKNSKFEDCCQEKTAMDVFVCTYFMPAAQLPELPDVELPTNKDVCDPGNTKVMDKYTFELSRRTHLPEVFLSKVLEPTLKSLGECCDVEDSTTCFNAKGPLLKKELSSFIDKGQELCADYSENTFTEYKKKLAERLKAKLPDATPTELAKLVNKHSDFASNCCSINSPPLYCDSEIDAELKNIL

[2] = tested on: HL-60 cells; experiment: HL-60 cell differentiation (NBT reduction); format: cell-based; conditions: % of the activity of 1α,25-(OH)2D3 at 50% of its activity (B50); human leukemia cells
Method: (§1) HL-60 cells were seeded at 1.2×10^5 cells/ml and 1α,25-(OH)2D3 or its anologs were added in ethanol (final concentration <0.2%) in RPMI 1640 medium supplemented with 10% heat-inactivated fetal calf serum (FCS) for 4 d at 37° C. Cells were then assayed for maturation by NBT reduction assay as described (22) using a hemacytometer, or for proliferation by cell counting and [^3H] thymidine incorporation. MG 63 cells, seeded at 5×10^3 cells/ml in 96 well flat bottomed culture plates (Falcon, Becton Dickinson, N.J.) in a volume of 0.2 ml of DMEM and 2% FCS, were incubated with 1α,25-(OH)2D3 or its analogues for 72 h. Osteocalcin was then measured in the culture medium using a homologous human osteocalcin RIA (39). Breast carcinoma cells (MCF-7 or GR) were grown in DMEM/nut.mix F-12 (HAM) medium supplemented with 10% FCS. Cells (5000/Well) were incubated during 24 h in 96 well tissue culture plates (Falcon 3072) followed by a 72 h incubation with/without 1α,25-(OH)2D3 or analogues. The cells were then incubated with [^3H]thymidine (1 μCi/well) for 4 h and harvested thereafter in NaOH (0.1 M) and the radioactivity counted. The protein content of the cells was measured by the Pierce BCA protein assay (Rockford, Ill.).

[3] = tested on: vitamin D-deficient chicks; experiment: Calcemic effect in vitamin D-deficient chicks (serum calcium); format: in vivo, chick; conditions: % of the activity of 1α,25-(OH)2D3 at 50% of its activity (B50); vitamin D-deficient chicks injected 10 consecutive days
Method: The antirachitic activity of the analogues was tested in 3 weeks old vitamin D-deficient chicks injected for 10 consecutive days with 1α,25-(OH)2D3 or its analogues (22,23). Serum calcium (by atomic absorptiometry) and osteocalcin (by specific RIA), duodenal calbindin D-28K (by RIA) and bone calcium content were measured. The hypercalcemic effect of the most interesting anologues was also tested in vitamin D-replete normal NMRI mice by daily sc injection of 1α,25-(OH)2D3, its analogues or the solvent for 7 consecutive days, using serum, bone and urinary calcium excretion and serum osteocalcin (by specific mouse RIA) as parameters (40).

[4] = target: T2, vitamin D receptor (Sus scrofa, UniProt A3RGC1); conditions: % of the activity of 1α,25-(OH)2D3 at 50% of its activity (B50); 1α,25-(OH)2D3 assigned 100%
T2 sequence (A3RGC1 1-427): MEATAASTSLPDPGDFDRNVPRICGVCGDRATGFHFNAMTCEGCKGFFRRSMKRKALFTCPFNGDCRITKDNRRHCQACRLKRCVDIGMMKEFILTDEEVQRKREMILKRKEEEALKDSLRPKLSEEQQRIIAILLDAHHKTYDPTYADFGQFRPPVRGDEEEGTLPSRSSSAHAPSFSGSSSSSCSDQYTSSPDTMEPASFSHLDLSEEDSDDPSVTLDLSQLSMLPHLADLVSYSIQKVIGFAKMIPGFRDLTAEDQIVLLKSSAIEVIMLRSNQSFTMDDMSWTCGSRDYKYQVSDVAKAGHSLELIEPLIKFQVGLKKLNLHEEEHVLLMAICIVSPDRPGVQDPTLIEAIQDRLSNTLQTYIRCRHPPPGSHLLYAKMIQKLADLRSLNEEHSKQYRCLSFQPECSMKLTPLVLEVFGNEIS

[5] = tested on: human normal keratinocytes; experiment: Human keratinocyte proliferation ([3H]thymidine incorporation); format: cell-based; conditions: % of the activity of 1α,25-(OH)2D3 at 50% of its activity (B50)
Method: to evaluate the effects on cell proliferation of non-malignant cells and especially to evaluate their potential for use for dermatological disorders, the new compounds were tested in cultures of human normal keratinocytes.
Human skin keratinocytes were isolated and cultured using a modification of the method of Kitano and Okada (38).
Briefly, the skin from biopsies of patients with breast tumors, was cutted into pieces measuring 3-5 mm and soaked overnight at 4° C. in a solution of dispase (20 Boehringer units/ml). The epidermis was peeled from the dermis, washed with calcium- and magnesium-free phosphate buffered saline and incubated and shaked in a 0.25% trypsin solution for 10 min at room temperature. The reaction was then stopped by addition of PBS containing 10% FCS. The cells were collected after centrifugation at 4° C. for 10 min at 800 rpm. After an additional washing with PBS, the pellet was suspended in culture medium into 25 cm^2 primaria flasks from Becton Dickinson. The keratinocytes were cultivated at 37° C. in an atmosphere of 5% CO2 in air. A few hours later, the medium was replaced by new one. The medium [Keratinocyte Medium from Gibco containing Epidermal Growth Factor (5 ng/ml), Bovine Pituitary Extract (35-50 μg/ml) and antibiotics] was renewed every other day until confluency.
Keratinocytes were cultured in 96-well plate and, after 24 hours, were treated with various concentrations of vitamin D analogues, followed by pulse labelling with 1 μCi of [^3H]thymidine for 3 hours. Cultures were washed 3 times with PBS and twice with 10% (v/v) ice cold trichloroacetic acid. Cells were solubilized with 1 M NaOH and radioactivity was counted in a scintillation counter.

[6] = tested on: MG-63 cells; experiment: MG-63 osteosarcoma cells, osteocalcin secretion; format: cell-based; conditions: % of the activity of 1α,25-(OH)2D3 at 50% of its activity (B50); human osteosarcoma cells
Method: as §1

[7] = tested on: MCF-7 cells; experiment: MCF-7 breast cancer cell proliferation ([3H]thymidine incorporation); format: cell-based; conditions: % of the activity of 1α,25-(OH)2D3 at 50% of its activity (B50); human breast cancer cells
Method: as §1

| Structure (SMILES) | Affinity for human DBP [1] [%] | Cell differentation/cell proliferation HL-60 [2] [%] | Ca serum chick [3] [%] | Affinity for pig receptor [4] [%] | Cell differentation/cell proliferation keratinocytes [5] [%] | Cell differentation/cell proliferation MG-63 [6] [%] | Cell differentation/cell proliferation MCF-7 [7] [%] |
| --- | --- | --- | --- | --- | --- | --- | --- |
| C=C1C(=CC=CC2CCCC(C(C)CCCC(C)(C)O)C2(C)C)CC(O)CC1O (stereo not drawn) [Compound 56] | 70 | 100 | – | – | – | – | – |
| C=C1C(=CC=CCC2(C)CCC(CCCC(O)(CC)CC)C2(C)C)CC(O)CC1O (stereo not drawn) [Compound 16] | 0 | 12 | 0.2 | 15 | 30 | 10 | – |
| CC(CCCC(C)(C)O)C(C)C1(C)CCCC(=CC=C2CC(O)CC(O)C2)C1 (stereo not drawn) [Compound 8] | 3 | >1000 | <0.1 | 45 | – | 300 | 3000 |
| CC(CCCC(C)(C)O)C1CCC2C(=CC=C3CC(O)CC(O)C3)CCC(O)C21 (stereo not drawn) [Compound 2] | 0 | 75 | – | 0 | – | 4.5 | – |
| C=C1C(=CC=CCC2(C)CCC(CCCCC(C)(C)O)C2(C)C)CC(O)CC1O (stereo not drawn) [Compound 19] | 50 | 10 | – | 13 | – | 30 | – |
| CC1=C(/C=C\C2=CCC[C@](C)([C@H](C)[C@H](C)CC[C@@H](O)C(C)C)C2)C[C@@H](O)C[C@@H]1O [Compound 58] | 1 | 650 | <1 | 3 | 1000 | 115 | 700 |
| C=C1C(=CC=C2CCCC3C2CCC3C(C)CCCC(C)(C)O)CC(O)CC1O (stereo not drawn) [Compound 3] | 10 | 720 | – | 100 | – | 75 | – |
| CCC(O)(C=CC=CC(C)C1CCC2C(=CC=C3CC(O)CC(O)C3)CCCC21C)CC (stereo not drawn) [Compound 50] | 0 | 40 | 0.1 | 9 | 60 | – | 100 |
| C=C1C(=CC=CCC2(C)CCC(CCCCC(O)(CC)CC)C2(C)C)CC(O)CC1O (stereo not drawn) [Compound 20] | 8 | 75 | – | 28 | – | 30 | – |
| C=C1/C(=C\C=C2/CCC[C@](C)([C@H](C)[C@H](C)CCCC(C)(C)O)C2)C[C@@H](O)C[C@@H]1O [Compound 7] | 20 | 1000 | 5 | 60 | – | 700 | 6000 |
| C=C1/C(=C\C=C\[C@@H]2CC[C@](C)(CCCCC(O)(CC)CC)C2(C)C)C[C@@H](O)C[C@@H]1O [Compound 38] | 2 | 100 | 2 | 80 | – | – | – |
| CC(CCCCC(C)(C)O)C1CCC2C(=CC=C3CC(O)CC(O)C3)CCCC21C (stereo not drawn) [Compound 54] | 1 | 30 | 0.4 | 20 | – | 10 | – |
| C=C1C(=CC=CCC2(C)CCC(OCCC(O)(CC)CC)C2(C)C)CC(O)CC1O (stereo not drawn) [Compound 18] | 0 | 10 | <0.1 | 4 | 35 | – | 40 |
| CC(CC#CC1(C)CO1)C1CCC2C(=CC=C3CC(O)CC(O)C3)CCCC21C (mixture of isomers) [Compound 45] | 1.5 | 80 | 1 | 2.5 | – | 10 | 20 |
| CCC(O)(CC)CCCCC(C)C1CCC2C(=CC=C3CC(O)CC(O)C3)CCCC21C (stereo not drawn) [Compound 55] | 0 | 65 | 0.3 | 30 | – | 3 | – |
